Source: paper PMC6162288, “On-chip spatiotemporal electrophysiological analysis of human stem cell derived cardiomyocytes enables quantitative assessment of proarrhythmia in drug development” (Scientific Reports, 2018)
“And” between values parts separate entries of the source, which are not always exact repeats. Equal entries are not always repeated. “Also recorded” adds a separate entry of the source. Where two headings read alike, the source gives them in different places.

Legend:
lined-up hESC-CMs = test: MEA field potential recording of lined-up hESC-CMs (cFPD, CT, their STVs, ISI, beat rate, arrest); format: cell-based, human
Protocol: Human embryonic stem cell-derived cardiomyocytes clusters (hES-CMCs) were shipped from Cellectis (hES-CMCTM002, hES cell line SA002, Gothenburg, Sweden)[42],[43], and maintained in Dulbecco’s modified Eagle’s medium (DMEM) supplemented 20% heat-inactivated fetal bovaine serum, 1 mM GlutaMax, 100 U/mL penicillin, 0.1 mg/mL streptomycin, 1% nonessential amino acids and 0.1 mM β-mercaptoethanol (Invitrogen, Carsbad, CA, USA). Dispersed cardiomyocytes were isolated from hES-CMCs by a modification of the methods of Norström et al.[44]–[48]. […] The supernatant was gently aspirated with pipette, and a 5-hold volume of DMEM was added as stop solution. Remaining clusters were treats ed with the above process with several times. The supernatants were collected and centrifuged with 200 × g for 2–3 min at 4 °C. The resulting supernatant including dispersed cells was seeded into agarose microchambers on an MEA chip (MED-P530A; AlphaMED scientific. Co. Ltd., Japan)[40].
The MEA chip surface was prepared as follows. First, the chip surface was coated with collagen type I-C (Nitta Gelatin, Japan). After drying, the chip surface was coated with a 0.1% agarose gel. […] At >30 min before the start of experiment, the medium was changed to 2 mL pre-warmed fresh maintenance medium per chip.
Extracellular potential recordings of the lined-up hESC-CMs were performed using the MEA system at a sampling rate of 10 kHz with a low path filter of 2 kHz and high path filter of 1 Hz, and signals were amplified by 100–50,000 using the amplifier. The MEA chip with lined-up hESC-CMs was set in the FP measurement device and placed in a humidified cell culture incubator at 37 °C, 5% CO2. The signals were analyzed by Igor Pro 6.0 (WaveMetrics, Inc., USA) and FlexPro 7.0 (Weisang GmbH, Germany).
We adopted the same drug administration protocol as we examined previously[40] (Fig. 2B). Briefly, the MEA chips of lined-up cells for experiments were selected from the chips having 0.6–1.1 Hz beating frequency and ventricle-like waveforms of FP recordings (see Fig. 1B,D). The MEA chip was placed in the holder of the FP measurement device, and equilibrated for 5 min, and then the control FP waveforms were recorded for 10 min. Subsequently, the drug was applied to the medium at 1% dilution in serially increasing additions, and the FP waveforms were recorded for 10 min at each concentration. Finally, the drug-containing medium was replaced with fresh medium after washing three times. The last 50 beats extracted from 10 min recorded FP waveform data was used for beat rate, FPD (the time from first depolarization peak to broad repolarization peak) and CT (the time difference of the first peaks between separately placed electrodes in lined-upped cell-network) measurement at each concentration (Fig. 2C).
It was normalized (cFPD) to the beating rate of cardiomyocytes using Bazett’s correction formula based on the comparison of the slope of a plot of inter-spike interval and FPD, or corrected FPD by Bazett’s or Fridericia’s formulae (Fig. 3). The short-term variability (STV) of cFPD and CT, which was defined as the mean distance of points perpendicular to the line of identity in the Poincaré plot, was calculated ( STV=∑|D(n+1)−Dn|/(n×2) , where Dn represents the FPD and CT of n-th beating). STVs were last 50 beat data from 5 min extraction of cFPD and CT. To assess the arrhythmogenicity risk of test drugs, the mean values of cFPD, STVcFPD, CT and STVCT of each drug were plotted.

Nav1.5 = details: cited from earlier work
hERG = details: read-out: IC50 hERG; cited from earlier work
Cav1.2 = details: cited from earlier work
[1] = Conc. 10^2 nM (0.1 μM), change vs Ctrl.
[2] = Conc. 10^3 nM (1 μM), change vs Ctrl.
[3] = Conc. 10^−1 nM, change vs Ctrl.
[4] = Conc. 10^4 nM (10 μM), change vs Ctrl.
[5] = Conc. 10^5 nM (100 μM), change vs Ctrl.

Cc1cccc(CCN2CCC(C(=O)c3ccc(NS(C)(=O)=O)cc3)CC2)n1 [E-4031]
STVcFPD (lined-up hESC-CMs; 1 μM): more than doubled
BR (beat rate) (lined-up hESC-CMs; Conc. 1 nM, change vs Ctrl.): 3.9%
Cond. Time (CT) (lined-up hESC-CMs; Conc. 1 nM, change vs Ctrl.): −4.3%
ISI (inter-spike interval) (lined-up hESC-CMs; Conc. 1 nM, change vs Ctrl.): −3.7%
STVCT (lined-up hESC-CMs; Conc. 1 nM, change vs Ctrl.): 19%
STVcFPD (lined-up hESC-CMs; Conc. 1 nM, change vs Ctrl.): −3.6%
cFPD (lined-up hESC-CMs; Conc. 1 nM, change vs Ctrl.): 0.69%
BR (beat rate) (lined-up hESC-CMs; Conc. 10 nM, change vs Ctrl.): 4.5%
Cond. Time (CT) (lined-up hESC-CMs; Conc. 10 nM, change vs Ctrl.): 2.1%
ISI (inter-spike interval) (lined-up hESC-CMs; Conc. 10 nM, change vs Ctrl.): −4.2%
STVCT (lined-up hESC-CMs; Conc. 10 nM, change vs Ctrl.): 5.7%
STVcFPD (lined-up hESC-CMs; Conc. 10 nM, change vs Ctrl.): 17%
cFPD (lined-up hESC-CMs; Conc. 10 nM, change vs Ctrl.): 7.1%
Cond. Time (CT) (lined-up hESC-CMs; [1]): 10%
STVCT (lined-up hESC-CMs; [1]): 43%
STVcFPD (lined-up hESC-CMs; [1]): 94%
cFPD (lined-up hESC-CMs; [1]): 30%
cFPD (lined-up hESC-CMs; Conc. 10^2 nM (0.1 μM), change vs Ctrl., listed as E-4301): 30%
BR (beat rate) (lined-up hESC-CMs; Conc. 10^2 nM, change vs Ctrl.): 5.1%
ISI (inter-spike interval) (lined-up hESC-CMs; Conc. 10^2 nM, change vs Ctrl.): −4.7%
Cond. Time (CT) (lined-up hESC-CMs; [2]): 49%
STVcFPD (lined-up hESC-CMs; [2]): 110%
cFPD (lined-up hESC-CMs; [2]): 47%
cFPD (lined-up hESC-CMs; Conc. 10^3 nM (1 μM), change vs Ctrl., listed as E-4301): 47%
BR (beat rate) (lined-up hESC-CMs; Conc. 10^3 nM, change vs Ctrl.): 5.8%
ISI (inter-spike interval) (lined-up hESC-CMs; Conc. 10^3 nM, change vs Ctrl.): −5.1%
BR (beat rate) (lined-up hESC-CMs; [3]): 2.6%
ISI (inter-spike interval) (lined-up hESC-CMs; [3]): −2.5%
STVCT (lined-up hESC-CMs; [3]): 52%
STVcFPD (lined-up hESC-CMs; [3]): 2.9%
cFPD (lined-up hESC-CMs; [3]): 0.52%
Cond. Time (CT) (lined-up hESC-CMs; Conc. 10^−1 nM, change vs Ctrl., 150 μm inter-electrode distance): 8.9%
CT (mean conduction time) (lined-up hESC-CMs; any tested concentration): did not significantly change; also recorded: did not increase

O=C(NCC1CCCCN1)c1cc(OCC(F)(F)F)ccc1OCC(F)(F)F (stereo not drawn) [Flecainide, flecainide]
STVcFPD increase (lined-up hESC-CMs; 10–100 μM): about 50%
BR (beat rate) (lined-up hESC-CMs; Conc. 10 nM, change vs Ctrl.): 2.6%
Cond. Time (CT) (lined-up hESC-CMs; Conc. 10 nM, change vs Ctrl.): −3.2%
ISI (inter-spike interval) (lined-up hESC-CMs; Conc. 10 nM, change vs Ctrl.): −2.5%
STVCT (lined-up hESC-CMs; Conc. 10 nM, change vs Ctrl.): 7.0%
cFPD (lined-up hESC-CMs; Conc. 10 nM, change vs Ctrl.): 0.13%
Cond. Time (CT) (lined-up hESC-CMs; [1]): 12%
STVCT (lined-up hESC-CMs; [1]): 61%
STVcFPD (lined-up hESC-CMs; [1]): −16%
cFPD (lined-up hESC-CMs; [1]): 3.4%
BR (beat rate) (lined-up hESC-CMs; Conc. 10^2 nM, change vs Ctrl.): 3.9%
ISI (inter-spike interval) (lined-up hESC-CMs; Conc. 10^2 nM, change vs Ctrl.): −3.7%
Cond. Time (CT) (lined-up hESC-CMs; [2]): −0.65%
STVCT (lined-up hESC-CMs; [2]): 36%
STVcFPD (lined-up hESC-CMs; [2]): 0.32%
cFPD (lined-up hESC-CMs; [2]): 1.8%
BR (beat rate) (lined-up hESC-CMs; Conc. 10^3 nM, change vs Ctrl.): 4.5%
ISI (inter-spike interval) (lined-up hESC-CMs; Conc. 10^3 nM, change vs Ctrl.): −4.2%
Cond. Time (CT) (lined-up hESC-CMs; [4]): 64% and 65%
STVCT (lined-up hESC-CMs; [4]): 288%
STVcFPD (lined-up hESC-CMs; [4]): 41%
cFPD (lined-up hESC-CMs; [4]): 0.11%
STVCT (lined-up hESC-CMs; Conc. 10^4 nM (10 μM), change vs Ctrl., listed as flecainide): 287%
BR (beat rate) (lined-up hESC-CMs; Conc. 10^4 nM, change vs Ctrl.): 5.1%
ISI (inter-spike interval) (lined-up hESC-CMs; Conc. 10^4 nM, change vs Ctrl.): −4.7%
Cond. Time (CT) (lined-up hESC-CMs; [5]): −3.6%
STVCT (lined-up hESC-CMs; [5]): 263%
STVcFPD (lined-up hESC-CMs; [5]): 54%
cFPD (lined-up hESC-CMs; [5]): −14%
Arrest (lined-up hESC-CMs; Conc. 10^5 nM, arrest cases/chips): 1/4
BR (beat rate) (lined-up hESC-CMs; Conc. 10^5 nM, change vs Ctrl.): 5.8%
ISI (inter-spike interval) (lined-up hESC-CMs; Conc. 10^5 nM, change vs Ctrl.): −5.1%
CT (lined-up hESC-CMs; at equivalent concentrations of Nav1.5 IC50): increased
FPD (lined-up hESC-CMs; up to 100 μM): did not show FPD prolongation
IC50 (Nav1.5; read-out: IC50 Nav1.5): 34 µM
IC50 (Nav1.5; ref Table 1, read-out: Nav1.5 IC50): ~34 µM
IC50 (hERG): 1.8 µM
IC50 (Cav1.2; read-out: Cav1.2 IC50, ref Table 1): 56 µM
IC50 (Cav1.2; read-out: IC50 Cav1.2): 55.9 µM
